Assay results from US20230257385A1, “SALT AND SOLID FORMS OF TABERNANTHALOG” (priority 2021, published 2023).
Entries after “also recorded” stand apart in the source; their conditions may differ. Where a name gives a salt, the structure may show the parent alone.

Columns and labels:
[1] = Stability panel of salts, open vial / double-bagged vial, t=5 d and 10 d; assay type: physicochemical; details: storage conditions not given
From the text: FIG. 797 depicts the overlay of, from top to bottom, XRPD of Experiment 1-Sample A2 (Form A), Experiment 10-Sample A1 (5 days, open vial Pattern #2), Experiment 10-Sample A2 (10 days, open vial, Pattern #2), Experiment 10-Sample B1 (5 days, double-bagged vial, Form A) and Experiment 10-Sample B2 (10 days, double-bagged vial, Pattern #2).

[2] = Solubility determinations in SIF buffers FaSSIF, FeSSIF, FaSSGF (Example 8, Experiment 5); details: for solubility at 24 h: 37 °C, thermodynamic from solid; for fate of the suspended phase in FaSSGF (XRPD, 1H NMR): up to 24 h
Summary of the method: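 Suspensions in FaSSIF, FeSSIF or FaSSGF held at 37° C for 24 h, sampled at set time points and centrifuged. Pellets checked by XRPD, wet and dried, for form change.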

[3] = Dynamic vapour sorption (DVS) of selected salts (Example 8); assay type: physicochemical
Summary of the method: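 Sorption/desorption isotherms on 20–50 mg sample at 25°C after 60 min at 0% RH: 5% steps to 30%, 10% steps to 90%, then reverse. Equilibrium criterion dm/dt 0.002%/min; kinetic and isotherm curves derived.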

[4] = Stability of sorbate salt at 95% RH (KNO3) at 20° C. (Example 10, Experiment 10); assay type: physicochemical; details: XRPD
Experimental: The samples were maintained under equilibrium humidity of 95% RH at 20° C. and monitored at 5 day by XRPD and 10 day time points by ^1H NMR, XRPD, DSC, TGA and PLM.
Experiment 10-Sample A was open-capped, and Experiment 10-Sample B was open-capped inside double, cable-tied, electrostatic polythene bags (to mimic a typical packaging configuration) and both were placed inside the same humidity chamber at 95% RH at 20° C. The powders were finely divided and distributed evenly over the base of the vial, such that equal material coverage across the panel was observed. The samples were sub-sampled at intervals of t=0, 5 d and 10 d and analysed by XRPD, DSC, TGA and ^1H NMR, for evidence of phase change or chemical degradation

[5] = Examination of variability of fusion temperature of sorbate Form A (DSC); assay type: physicochemical; details: listed as Experiment 13-Sample C1
Experimental: The factors that were assessed to explain the observed variability in fusion temperature found amongst Form A samples were sample loading, preferred orientation and particle size/homogeneity (Table 271). A weak relationship between sample loading and melt onset was observed, the remainder of the factors examined, appeared to be unrelated.
DSC data were collected from 25 to 220C at a scan rate of at 10° C. min^−1 (Table 292).

[6] = listed as Tabernanthalog sorbate salt (Form A)
[7] = DSC 25-220° C. at 10° C. min^−1, batches of sorbate salt Form A
[8] = DSC 25 to 220C at 10° C. min−1, tabernanthalog sorbate Form A samples

COc1ccc2c3c([nH]c2c1)CCN(C)CC3 [tabernanthalog sorbate salt]
CP after stability storage ([1]; end value (minimal reduction in CP)): 99.70 % area
CP before stability storage ([1]; starting value): 99.76 % area
Solubility in SIF buffers: FeSSIF ([2]; 37° C. up to 1 h): Insoluble
Solubility in SIF buffers: FaSSGF ([2]; 37° C. up to 24 h): Insoluble
solubility at 24 h ([2]; pH 5, fessif): > 30 mg/mL
solubility at 24 h ([2]; pH 6.5, fassif): > 30 mg/mL
solubility in the SIF buffers (in words) ([2]; FaSSIF, FeSSIF, FaSSGF): highly soluble in the SIF buffers examined; also recorded: highly soluble in the SIF buffers used, apart from FaSSGF
behaviour at 30 mg/ml in SIF buffers ([2]; FaSSIF, FeSSIF, FaSSGF, 37° C., 24 h): only remained suspended in FaSSGF
solubility in the SIF buffers (in words) ([2]; FaSSIF, FeSSIF, FaSSGF, listed as Tabernanthalog sorbate salt (Form A)): readily soluble in FaSSIF and FeSSIF during 24 h
Tabernanthalog RRT = 1.00 (trended HPLC data, chemical purity) ([2]; tabernanthalog sorbate salt, input before FaSSGF): 99.41
fate of the suspended phase in FaSSGF (XRPD, 1H NMR) ([2]; 37° C.): supported disproportionation
fate of the suspended phase in FaSSGF (XRPD, 1H NMR) ([2]; 37° C., listed as Tabernanthalog sorbate salt (Form A)): only exhibited disproportionation after 24 h in FaSSGF
DVS sorption/desorption isotherm ([3]; 0 to 90 to 0% RH, 25° C., dm/dt 0.002%/min): slightly hygroscopic up to 80% RH
DVS 0 to 90 to 0% RH (dm/dt <0.002%), mass change ([3]; desorption, 0.0% RH): −0.06%
DVS mass change ([3]; desorption, 0.0% RH, listed as tabernanthalog sorbate salt (Form A)): 0.06%
DVS mass change ([3]; desorption, 0.0% RH, listed as tabernanthalog sorbate salt (Form I)): −0.06%
DVS 0 to 90 to 0% RH (dm/dt <0.002%), mass change ([3]; desorption, 5.0% RH): −0.05%
DVS mass change ([3]; desorption, 5.0% RH, listed as tabernanthalog sorbate salt (Form A)): 0.05%
DVS mass change ([3]; desorption, 5.0% RH, listed as tabernanthalog sorbate salt (Form I)): −0.05%
DVS 0 to 90 to 0% RH (dm/dt <0.002%), mass change ([3]; desorption, 10.0% RH): −0.04%
DVS mass change ([3]; desorption, 10.0% RH, listed as tabernanthalog sorbate salt (Form A)): 0.04%
DVS mass change ([3]; desorption, 10.0% RH, listed as tabernanthalog sorbate salt (Form I)): −0.04%
DVS 0 to 90 to 0% RH (dm/dt <0.002%), mass change ([3]; desorption, 15.0% RH): −0.03%
DVS mass change ([3]; desorption, 15.0% RH, listed as tabernanthalog sorbate salt (Form A)): 0.03%
DVS mass change ([3]; desorption, 15.0% RH, listed as tabernanthalog sorbate salt (Form I)): −0.03%
DVS 0 to 90 to 0% RH (dm/dt <0.002%), mass change ([3]; desorption, 20.0% RH): −0.02%
DVS mass change ([3]; desorption, 20.0% RH, listed as tabernanthalog sorbate salt (Form A)): 0.02%
DVS mass change ([3]; desorption, 20.0% RH, listed as tabernanthalog sorbate salt (Form I)): −0.02%
DVS 0 to 90 to 0% RH (dm/dt <0.002%), mass change ([3]; desorption, 25.0% RH): −0.007%
DVS mass change ([3]; desorption, 25.0% RH, listed as tabernanthalog sorbate salt (Form A)): 0.00%
DVS mass change ([3]; desorption, 25.0% RH, listed as tabernanthalog sorbate salt (Form I)): −0.007%
DVS 0 to 90 to 0% RH (dm/dt <0.002%), mass change ([3]; desorption, 30.0% RH): 0.00%
DVS mass change ([3]; desorption, 30.0% RH): 0.00%
DVS 0 to 90 to 0% RH (dm/dt <0.002%), mass change ([3]; desorption, 40.0% RH): 0.03%
DVS mass change ([3]; desorption, 40.0% RH): 0.03%
DVS 0 to 90 to 0% RH (dm/dt <0.002%), mass change ([3]; desorption, 50.0% RH): 0.06%
DVS mass change ([3]; desorption, 50.0% RH): 0.06%
DVS 0 to 90 to 0% RH (dm/dt <0.002%), mass change ([3]; desorption, 60.0% RH): 0.18%
DVS mass change ([3]; desorption, 60.0% RH): 0.18%
DVS 0 to 90 to 0% RH (dm/dt <0.002%), mass change ([3]; desorption, 70.0% RH): 0.30%
DVS mass change ([3]; desorption, 70.0% RH): 0.30%
DVS 0 to 90 to 0% RH (dm/dt <0.002%), mass change ([3]; desorption, 80.0% RH): 0.48%
DVS mass change ([3]; desorption, 80.0% RH): 0.48%
DVS 0 to 90 to 0% RH (dm/dt <0.002%), mass change ([3]; desorption, 90.0% RH): 0.98%
DVS mass change ([3]; desorption, 90.0% RH): 0.98%
DVS 0 to 90 to 0% RH (dm/dt <0.002%), mass change ([3]; sorption, 0.0% RH): 0.00%
DVS mass change ([3]; sorption, 0.0% RH, dm/dt<0.002%): 0.00%
DVS 0 to 90 to 0% RH (dm/dt <0.002%), mass change ([3]; sorption, 5.0% RH): 0.0%
DVS mass change ([3]; sorption, 5.0% RH): 0.0%
DVS 0 to 90 to 0% RH (dm/dt <0.002%), mass change ([3]; sorption, 10.0% RH): 0.01%
DVS mass change ([3]; sorption, 10.0% RH): 0.01%
DVS 0 to 90 to 0% RH (dm/dt <0.002%), mass change ([3]; sorption, 15.0% RH): 0.01%
DVS mass change ([3]; sorption, 15.0% RH): 0.01%
DVS 0 to 90 to 0% RH (dm/dt <0.002%), mass change ([3]; sorption, 20.0% RH): 0.02%
DVS mass change ([3]; sorption, 20.0% RH): 0.02%
DVS 0 to 90 to 0% RH (dm/dt <0.002%), mass change ([3]; sorption, 25.0% RH): 0.03%
DVS mass change ([3]; sorption, 25.0% RH): 0.03%
DVS 0 to 90 to 0% RH (dm/dt <0.002%), mass change ([3]; sorption, 30.0% RH): 0.03%
DVS mass change ([3]; sorption, 30.0% RH): 0.03%
DVS 0 to 90 to 0% RH (dm/dt <0.002%), mass change ([3]; sorption, 40.0% RH): 0.05%
DVS mass change ([3]; sorption, 40.0% RH): 0.05%
DVS 0 to 90 to 0% RH (dm/dt <0.002%), mass change ([3]; sorption, 50.0% RH): 0.07%
DVS mass change ([3]; sorption, 50.0% RH): 0.07%
DVS 0 to 90 to 0% RH (dm/dt <0.002%), mass change ([3]; sorption, 60.0% RH): 0.10%
DVS mass change ([3]; sorption, 60.0% RH): 0.10%
DVS 0 to 90 to 0% RH (dm/dt <0.002%), mass change ([3]; sorption, 70.0% RH): 0.14%
DVS mass change ([3]; sorption, 70.0% RH): 0.14%
DVS 0 to 90 to 0% RH (dm/dt <0.002%), mass change ([3]; sorption, 80.0% RH): 0.21%
DVS mass change ([3]; sorption, 80.0% RH): 0.21%
DVS 0 to 90 to 0% RH (dm/dt <0.002%), mass change ([3]; sorption, 90.0% RH): 0.98%
DVS mass change ([3]; sorption, 90.0% RH): 0.98%
form change on storage, double-bagged (closed) vial [4]: At t=10 d, Form A converted to Pattern #2
form change on storage, open vial [4]: At t=5 d, Form A converted to Pattern #2
form change on storage, double-bagged (closed) vial [4, 6]: after 10 days
form change on storage, open vial [4, 6]: converted to Form C (Pattern #2) after 5 days
Endset [5, 7]: 144.5 °C
melt enthalpy [5, 7]: −105.8 Jg^−1
melt onset [5, 7]: 139.9 °C
peak [5, 7]: 142.5 °C
melt enthalpy [5, 8]: −105.78 Jg-1
melt onset [5, 8]: 139.87 °C
Endset ([5]; DSC melt endset, 25 to 220C at 10° C. min−1, tabernanthalog sorbate Form A samples): 144.46 °C
peak ([5]; DSC melt peak, 25 to 220C at 10° C. min−1, tabernanthalog sorbate Form A samples): 142.50 °C
